#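 Results reflect a 48-hour exposure of cells in 96-well plates to compound at five concentrations. TGI is the concentration that stops growth completely.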
# What was measured:
# Test in all cases: NCI anticancer screen, dose series, 48 h
# SK-MEL-2 melanoma = tested on: SK-MEL-2 melanoma
# LOX IMVI melanoma = tested on: LOX IMVI melanoma
# OVCAR-8 ovarian = tested on: OVCAR-8 ovarian
# SK-MEL-28 melanoma = tested on: SK-MEL-28 melanoma
# T-47D breast = tested on: T-47D breast
# MDA-MB-435 = tested on: MDA-MB-435
# SNB-19 CNS = tested on: SNB-19 CNS
# MDA-MB-231 breast = tested on: MDA-MB-231 breast
# TK-10 renal = tested on: TK-10 renal
# UACC-257 melanoma = tested on: UACC-257 melanoma
# 786-0 renal = tested on: 786-0 renal
# NCI-H460 lung = tested on: NCI-H460 lung
# OVCAR-3 ovarian = tested on: OVCAR-3 ovarian
# COLO 205 colon = tested on: COLO 205 colon
# HCC-2998 colon = tested on: HCC-2998 colon
# HCT-15 colon = tested on: HCT-15 colon
# HOP-62 NSCLC = tested on: HOP-62 NSCLC
# HOP-92 NSCLC = tested on: HOP-92 NSCLC
# UO-31 renal = tested on: UO-31 renal
# OVCAR-4 ovarian = tested on: OVCAR-4 ovarian
# EKVX NSCLC = tested on: EKVX NSCLC
# HT29 colon = tested on: HT29 colon
# MCF7 breast = tested on: MCF7 breast
# M14 melanoma = tested on: M14 melanoma
# A549 NSCLC = tested on: A549 NSCLC
# MDA-N = tested on: MDA-N
# HCT-116 colon = tested on: HCT-116 colon
# NCI/ADR-RES ovarian = tested on: NCI/ADR-RES ovarian
# OVCAR-5 ovarian = tested on: OVCAR-5 ovarian
# NCI-H23 lung = tested on: NCI-H23 lung
# HL-60(TB) leukemia = tested on: HL-60(TB) leukemia
# SK-MEL-5 melanoma = tested on: SK-MEL-5 melanoma
# SW-620 colon = tested on: SW-620 colon
# SF-295 CNS = tested on: SF-295 CNS
# MOLT-4 leukemia = tested on: MOLT-4 leukemia
# SF-539 CNS = tested on: SF-539 CNS
# DU-145 prostate = tested on: DU-145 prostate
# SN12C renal = tested on: SN12C renal
# SNB-75 CNS = tested on: SNB-75 CNS
# KM12 colon = tested on: KM12 colon
# U251 CNS = tested on: U251 CNS
# NCI-H226 lung = tested on: NCI-H226 lung
# PC-3 prostate = tested on: PC-3 prostate
# ACHN renal = tested on: ACHN renal
# CAKI-1 renal = tested on: CAKI-1 renal
# IGROV1 ovarian = tested on: IGROV1 ovarian
# SK-OV-3 ovarian = tested on: SK-OV-3 ovarian
smiles,measurement,setting,value
Cc1ccccc1NC(=O)Cc1csc(N/N=C2\NC(=O)/C(=C/c3cccc([N+](=O)[O-])c3)S2)n1,TGI,SK-MEL-2 melanoma,71.1 µM
same,TGI,LOX IMVI melanoma,> 100 µM
same,TGI,OVCAR-8 ovarian,> 100 µM
same,TGI,SK-MEL-28 melanoma,55.3 µM
same,TGI,T-47D breast,55.1 µM
same,TGI,MDA-MB-435,39.5 µM
same,TGI,SNB-19 CNS,34 µM
same,TGI,MDA-MB-231 breast,57.3 µM
same,TGI,TK-10 renal,36.9 µM
same,TGI,UACC-257 melanoma,41.9 µM
same,TGI,786-0 renal,> 100 µM
same,TGI,NCI-H460 lung,29 µM
same,TGI,OVCAR-3 ovarian,52.3 µM
same,TGI,COLO 205 colon,> 100 µM
same,TGI,HCC-2998 colon,27.3 µM
same,TGI,HCT-15 colon,29.3 µM
same,TGI,HOP-62 NSCLC,92.5 µM
same,TGI,HOP-92 NSCLC,38.1 µM
same,TGI,UO-31 renal,25.8 µM
same,TGI,OVCAR-4 ovarian,44.2 µM
same,TGI,EKVX NSCLC,32.8 µM
same,TGI,HT29 colon,> 100 µM
same,TGI,MCF7 breast,> 100 µM
same,TGI,M14 melanoma,31.3 µM
same,TGI,A549 NSCLC,44.5 µM
same,TGI,MDA-N,> 100 µM
same,TGI,HCT-116 colon,> 100 µM
same,TGI,NCI/ADR-RES ovarian,> 100 µM
same,TGI,OVCAR-5 ovarian,45.8 µM
same,TGI,NCI-H23 lung,42.7 µM
same,TGI,HL-60(TB) leukemia,39.5 µM
same,TGI,SK-MEL-5 melanoma,64.8 µM
same,TGI,SW-620 colon,> 100 µM
same,TGI,SF-295 CNS,41.8 µM
same,TGI,MOLT-4 leukemia,> 100 µM
same,TGI,SF-539 CNS,33.4 µM
same,TGI,DU-145 prostate,> 100 µM
same,TGI,SN12C renal,> 100 µM
same,TGI,SNB-75 CNS,34 µM
same,TGI,KM12 colon,34.2 µM
same,TGI,U251 CNS,53.8 µM
same,TGI,NCI-H226 lung,39.1 µM
same,TGI,PC-3 prostate,33.5 µM
same,TGI,ACHN renal,28.9 µM
same,TGI,CAKI-1 renal,35.7 µM
same,TGI,IGROV1 ovarian,34.3 µM
same,TGI,SK-OV-3 ovarian,74.6 µM

# — PubChem BioAssay (NCI)
